Target: MTH1 (Homo sapiens, UniProt P36639)
Assay: MTH1 enzymatic assay (malachite green, coupled to pyrophosphatase)
Assay type: biochemical
Conditions: dGTP 100 μM, MTH1 6 nM; 96- or 384-well format; read-out: IC50
Protocol: MTH1 catalyzes the hydrolysis of dGTP to dGMP and PPi. By coupling the reaction to pyrophosphatase added in excess PPi is converted to Pi that can be detected by using the malachite green assay reagent. […] 96-well method: Briefly, the compound to be analyzed is diluted in DMSO in a 1:3 dilution series generating 12 different compound concentrations giving a final DMSO concentration of 1% in the assay well. MTH1 diluted in assay buffer (100 mM Tris-acetate, 40 mM NaCl, 10 mM magnesium acetate, 1 mM DTT and 0.005% Tween 20) fortified with E. coli pyrophosphatase (0.2 U/ml) is added to a final concentration of 6 nM. dGTP diluted in assay buffer is added to a final concentration of 100 μM. The reaction mixture is incubated for 15 minutes at 22° C. To 100 μl reaction mixture, 25 μl Malachite green assay regent (0.095% Malachite green in 17% H2SO4, 1.5% Ammonium molybdate, 0.17% Tween 20) is added, followed by incubation with shaking for 15 minutes at 22° C. The absorbance of the assay plate is read at 630 nm using a Hidex Sense Multilabel plate reader. The IC50 value is determined by fitting a dose response curve to the data points using nonlinear regression analysis and the equation Y=Bottom+(Top-Bottom)/(1+10^((Log IC50−X)*HillSlope)), where Y is the read absorbance at 630 nm and X is log [compound].
384-Well Method: The compounds to be tested are nano-dispensed, in 11 concentrations, directly in assay plates, with a final DMSO concentration <1%. The protocol and the reaction mixture are the same as for the 96-well assay, with a total reaction volume of 50 μl/well to which 10 μl of Malachite green reagent is added. All additions to the assay plates are made with multidrop.

IC50, < 200 nM:
CNc1cc(-c2ccccc2C)nc(N)n1 [Example 143, 4-N-methyl-6-(2-methylphenyl)pyrimidine-2,4-diamine]
CNc1cc(-c2ccc3[nH]ncc3c2C)nc(N)n1 [Example 145, 4-N-methyl-6-(4-methyl-1H-indazol-5-yl)pyrimidine-2,4-diamine]
CNc1cc(-c2cccc(C)c2)nc(N)n1 [Example 147, 4-N-methyl-6-(3-methylphenyl)pyrimidine-2,4-diamine]
Cc1ccc(S(=O)(=O)n2cc(-c3cc(NC4CCC4)nc(N)n3)c3ccccc32)cc1 [Example 152, 4-N-cyclobutyl-6-[1-(4-methylbenzenesulfonyl)-1H-indol-3-yl]pyrimidine-2,4-diamine]
Cc1cccc(-c2cc(NC3CCCC3)nc(N)n2)c1C [Example 153, 4-N-cyclopentyl-6-(2,3-dimethylphenyl)pyrimidine-2,4-diamine]
CNc1cc(-c2cn(S(=O)(=O)c3ccc(C(F)(F)F)cc3)c3ccccc23)nc(N)n1 [Example 155, 4-N-methyl-6-{1-[4-(trifluoromethyl)benzenesulfonyl]-1H-indol-3-yl}pyrimidine-2,4-diamine]
Cc1cccc(-c2cc(NC3CCCCC3)nc(N)n2)c1C [Example 156, 4-N-cyclohexyl-6-(2,3-dimethylphenyl)pyrimidine-2,4-diamine]
CCNc1cc(-c2cccc(C)c2C)nc(N)n1 [Example 158, 6-(2,3-dimethylphenyl)-4-N-ethylpyrimidine-2,4-diamine]
Cc1ccc(S(=O)(=O)n2cc(-c3cc(NC(C)C)nc(N)n3)c3ccccc32)cc1 [Example 163, 6-[1-(4-methylbenzenesulfonyl)-1H-indol-3-yl]-4-N-(propan-2-yl)pyrimidine-2,4-diamine]
CNc1cc(-c2coc3ccccc23)nc(N)n1 [Example 170, 6-(1-benzofuran-3-yl)-4-N-methylpyrimidine-2,4-diamine]
CNc1cc(-c2csc3ccccc23)nc(N)n1 [Example 172, 6-(1-benzothiophen-3-yl)-4-N-methylpyrimidine-2,4-diamine]
CC(C)Nc1cc(-c2cccc(Cl)c2Cl)nc(N)n1 [Example 176, 6-(2,3-dichlorophenyl)-4-N-(propan-2-yl)pyrimidine-2,4-diamine]
Nc1nc(NCC2CC2)cc(-c2cccc(Cl)c2Cl)n1 [Example 177, 4-N-(cyclopropylmethyl)-6-(2,3-dichlorophenyl)pyrimidine-2,4-diamine]
CNc1cc(-c2cc(Br)ccc2OC)nc(N)n1 [Example 183, 6-(5-bromo-2-methoxyphenyl)-4-N-methylpyrimidine-2,4-diamine]
CNc1cc(-c2cc(C)ccc2C)nc(N)n1 [Example 184, 6-(2,5-dimethylphenyl)-4-N-methylpyrimidine-2,4-diamine]
CNc1cc(-c2cccnc2C(F)(F)F)nc(N)n1 [Example 185, 4-N-methyl-6-[2-(trifluoromethyl)pyridin-3-yl]pyrimidine-2,4-diamine]
CNc1cc(-c2ccc(OCc3ccccc3)cc2C)nc(N)n1 [Example 187, 6-[4-(benzyloxy)-2-methylphenyl]-4-N-methylpyrimidine-2,4-diamine]
CNc1cc(-c2cc(C)c(OC)cc2C)nc(N)n1 [Example 188, 6-(4-methoxy-2,5-dimethylphenyl)-4-N-methylpyrimidine-2,4-diamine]
CNc1cc(-c2cc(C)c(C)cc2C)nc(N)n1 [Example 189, 4-N-methyl-6-(2,4,5-trimethylphenyl)pyrimidine-2,4-diamine]
